# Assay results reported in article PMC9945182 (Chemical Research in Toxicology, 2023).
# Where two headings read alike, the source gives them in different places.
# Tests used:
# [1] = cited from earlier work; for physiological levels in the plasma corrected for plasma protein binding: after a single clinical dose of CBD
# CYP2C19 = CYP2C19 (Homo sapiens, UniProt P33261); assay type: biochemical; details: 10 μM inhibitor; cotinine substrate; CYP2C19 microsomes
# CYP2A6 [2] = biological target: T1, CYP2A6 (Homo sapiens, UniProt P11509); assay type: biochemical; details: for inhibition of nornicotine formation: nicotine substrate, CYP2A6 microsomes; for IC50: nicotine 50 μM, rec CYP2A6 microsomes
# T1 sequence (P11509 1-494): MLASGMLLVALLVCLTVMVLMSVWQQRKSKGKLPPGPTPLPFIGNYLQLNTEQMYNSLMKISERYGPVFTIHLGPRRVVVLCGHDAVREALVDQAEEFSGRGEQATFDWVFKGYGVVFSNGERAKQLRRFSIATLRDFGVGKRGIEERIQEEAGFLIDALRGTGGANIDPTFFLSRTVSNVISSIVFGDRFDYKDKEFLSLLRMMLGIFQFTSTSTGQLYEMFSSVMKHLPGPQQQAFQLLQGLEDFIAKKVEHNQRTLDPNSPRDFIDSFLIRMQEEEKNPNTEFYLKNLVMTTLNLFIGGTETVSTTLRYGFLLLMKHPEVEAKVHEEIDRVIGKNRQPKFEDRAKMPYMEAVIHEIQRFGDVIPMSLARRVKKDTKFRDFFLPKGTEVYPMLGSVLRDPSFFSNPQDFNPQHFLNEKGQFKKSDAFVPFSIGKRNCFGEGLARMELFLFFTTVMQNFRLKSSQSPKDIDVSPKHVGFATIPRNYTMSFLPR
# CYP2A6 [3] = biological target: T1, CYP2A6; assay type: biochemical; details: for decrease of 3HC formation: cotinine substrate, CYP2A6 microsomes; for IC50: cotinine 100 μM, rec CYP2A6 microsomes
# CYP2B6 [4] = biological target: T2, CYP2B6 (Homo sapiens, UniProt P20813); assay type: biochemical; details: for inhibition of cotinine formation: nicotine substrate, CYP2B6 microsomes
# T2 sequence (P20813 1-491): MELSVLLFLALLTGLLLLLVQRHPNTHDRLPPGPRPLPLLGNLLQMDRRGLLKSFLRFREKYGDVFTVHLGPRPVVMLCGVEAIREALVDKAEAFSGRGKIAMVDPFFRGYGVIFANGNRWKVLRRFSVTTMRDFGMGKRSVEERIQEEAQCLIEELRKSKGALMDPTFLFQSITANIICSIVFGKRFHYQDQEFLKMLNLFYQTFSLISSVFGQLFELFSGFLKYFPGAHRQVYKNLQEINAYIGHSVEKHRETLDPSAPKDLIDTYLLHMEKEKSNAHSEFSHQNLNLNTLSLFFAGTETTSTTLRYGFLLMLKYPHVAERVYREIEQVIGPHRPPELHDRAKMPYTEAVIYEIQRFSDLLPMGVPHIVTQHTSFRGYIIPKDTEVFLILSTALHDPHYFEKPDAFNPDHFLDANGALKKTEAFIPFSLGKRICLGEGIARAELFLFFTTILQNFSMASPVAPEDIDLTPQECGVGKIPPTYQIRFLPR
# [5] = test system: human liver microsomes (HLM); test: Inhibition of nicotine to nornicotine formation in pooled human liver microsomes; assay type: biochemical; details: nicotine 500 μM
# CYP2B6 [6] = biological target: T2, CYP2B6; assay type: biochemical; details: for inhibition of nornicotine formation: nicotine substrate, CYP2B6 microsomes
# cigarette smokers = details: single 800 mg oral dose, compared with a placebo group; cited from earlier work
# [7] = test system: human liver microsomes (HLM); test: Inhibition of 3HC to 3HC-Gluc formation in human liver microsomes; assay type: biochemical; details: up to 100 μM CBD
# [8] = to protein and labware; cited from earlier work
# UGT2B7 = biological target: T3, UGT2B7 (Homo sapiens, UniProt P16662); assay type: biochemical; details: for decrease in 3HC-Gluc formation: 3HC 30 mM, UGT2B7 microsomes
# T3 sequence (P16662 24-529): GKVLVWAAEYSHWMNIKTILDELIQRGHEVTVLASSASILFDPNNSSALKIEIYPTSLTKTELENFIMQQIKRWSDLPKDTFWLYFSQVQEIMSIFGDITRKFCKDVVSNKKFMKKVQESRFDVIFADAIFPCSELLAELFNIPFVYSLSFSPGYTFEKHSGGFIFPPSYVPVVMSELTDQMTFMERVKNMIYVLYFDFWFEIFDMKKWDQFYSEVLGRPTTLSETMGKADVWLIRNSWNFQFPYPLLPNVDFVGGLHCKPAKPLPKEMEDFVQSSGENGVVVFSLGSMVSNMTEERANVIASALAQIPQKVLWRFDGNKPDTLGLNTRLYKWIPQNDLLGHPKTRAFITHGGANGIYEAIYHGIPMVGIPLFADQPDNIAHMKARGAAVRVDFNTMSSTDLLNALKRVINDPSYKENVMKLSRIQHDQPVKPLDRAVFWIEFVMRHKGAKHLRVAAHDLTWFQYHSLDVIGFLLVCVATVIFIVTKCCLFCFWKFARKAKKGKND
# UGT2B10 = biological target: T4, UGT2B10 (Homo sapiens, UniProt P36537); details: previous studies; cited from earlier work
# T4 sequence (P36537 24-528): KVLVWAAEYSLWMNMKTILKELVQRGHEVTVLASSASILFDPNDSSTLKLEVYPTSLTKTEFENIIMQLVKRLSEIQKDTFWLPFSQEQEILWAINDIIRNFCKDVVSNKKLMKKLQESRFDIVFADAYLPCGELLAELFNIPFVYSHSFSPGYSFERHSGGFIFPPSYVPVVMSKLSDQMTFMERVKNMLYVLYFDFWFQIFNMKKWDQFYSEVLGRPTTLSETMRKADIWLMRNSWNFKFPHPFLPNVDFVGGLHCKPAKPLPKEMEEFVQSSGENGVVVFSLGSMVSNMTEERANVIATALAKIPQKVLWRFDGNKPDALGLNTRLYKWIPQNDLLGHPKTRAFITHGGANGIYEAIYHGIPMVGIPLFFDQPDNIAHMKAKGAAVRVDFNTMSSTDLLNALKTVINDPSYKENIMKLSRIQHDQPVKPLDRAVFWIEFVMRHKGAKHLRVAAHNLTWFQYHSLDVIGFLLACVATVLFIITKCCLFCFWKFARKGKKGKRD
# [9] = single dose regimen of Epidiolex (6000 mg)
# [10] = human, microsomes from CYP2B6-overexpressing HEK293 cells, pH 7.4, probe nicotine (cotinine formation)
# [11] = human, microsomes from CYP2B6-overexpressing HEK293 cells, pH 7.4, probe nicotine (nornicotine formation)
# CYP2C19, sequence (P33261 whole entry): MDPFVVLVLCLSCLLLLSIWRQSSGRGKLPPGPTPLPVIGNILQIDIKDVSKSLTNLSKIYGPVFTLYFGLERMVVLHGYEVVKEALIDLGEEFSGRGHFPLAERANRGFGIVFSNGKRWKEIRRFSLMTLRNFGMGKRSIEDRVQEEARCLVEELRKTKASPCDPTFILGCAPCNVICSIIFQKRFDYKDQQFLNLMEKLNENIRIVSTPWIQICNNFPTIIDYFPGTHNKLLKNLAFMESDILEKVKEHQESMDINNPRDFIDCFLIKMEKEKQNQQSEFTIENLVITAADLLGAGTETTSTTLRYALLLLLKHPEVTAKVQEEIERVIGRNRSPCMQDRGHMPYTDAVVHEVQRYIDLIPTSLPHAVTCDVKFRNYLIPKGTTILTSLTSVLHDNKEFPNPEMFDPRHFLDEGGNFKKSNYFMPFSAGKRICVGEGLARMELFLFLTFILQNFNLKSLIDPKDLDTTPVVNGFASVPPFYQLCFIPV
smiles,measurement,setting,value
"C=C(C)[C@@H]1CCC(CO)=C[C@H]1c1c(O)cc(CCCCC)cc1O [7-OH-CBD, 7-hydroxy-cannabidiol]",physiological levels in the plasma corrected for plasma protein binding,[1],0.04–0.09 μM
same,calculated unbound plasma Cmax,[1]; [9],93.6 nM
same,inhibition of COX formation,CYP2C19,15%
same,inhibition of nornicotine formation,CYP2A6 [2]; 1 μM inhibitor,55%
same,inhibition of nornicotine formation,CYP2A6 [2]; 10 μM inhibitor,70%
same,IC50,CYP2A6 [2]; nornicotine formation,2.1 ± 0.97 µM
same,IC50,"CYP2A6 [2]; read-out: IC50,u (binding-corrected IC50), nornicotine formation, IC50 × fu,inc",0.16 ± 0.08 µM
same,decrease of 3HC formation,CYP2A6 [3]; 1 μM inhibitor,45%
same,decrease of 3HC formation,CYP2A6 [3]; 10 μM inhibitor,65%
same,IC50,CYP2A6 [3]; 3HC formation,10 ± 3 µM
same,IC50,"CYP2A6 [3]; read-out: IC50,u (binding-corrected IC50), 3HC formation, IC50 × fu,inc",0.78 ± 0.23 µM
same,inhibition of cotinine formation,CYP2B6 [4]; 1 μM inhibitor,35%
same,inhibition of cotinine formation,CYP2B6 [4]; 10 μM inhibitor,50%
same,IC50,"CYP2B6 [4]; cotinine formation, nicotine 500 μM, rec CYP2B6 microsomes",15 ± 5.7 µM
same,IC50,[5],7.9 ± 2.5 µM
same,inhibition of nornicotine formation,CYP2B6 [6]; 1 μM inhibitor,64%
same,inhibition of nornicotine formation,CYP2B6 [6]; 10 μM inhibitor,72%
same,IC50,"CYP2B6 [6]; nornicotine formation, nicotine 100 μM, rec CYP2B6 microsomes",1.4 ± 0.4 µM
same,IC50,"CYP2B6 [6]; read-out: IC50,u (binding-corrected IC50), nornicotine formation, nicotine 100 μM, rec CYP2B6 microsomes, IC50 × fu,inc",0.11 ± 0.03 µM
"C=C(C)[C@@H]1CCC(C)=C[C@H]1c1c(O)cc(CCCCC)cc1O [CBD, cannabidiol]",effect on cigarette cues,cigarette smokers,reduced the salience and pleasantness of cigarette cues
same,physiological levels in the plasma corrected for plasma protein binding,[1],0.06–0.15 μM
same,Cmax,"[1]; read-out: plasma Cmax (maximum concentration), total, single dose regimen of Epidiolex (6000 mg)",2500 nM
same,calculated unbound plasma Cmax,[1]; [9],75 nM
same,IC50,"CYP2A6 [2]; IC50, nornicotine formation",3.7 ± 2.2 µM
same,IC50,"CYP2A6 [2]; IC50,u (binding-corrected IC50), nornicotine formation, IC50 × fu,inc",0.23 ± 0.14 µM
same,decrease of 3HC formation,CYP2A6 [3]; 1 μM inhibitor,55%
same,decrease of 3HC formation,CYP2A6 [3]; 10 μM inhibitor,60%
same,IC50,"CYP2A6 [3]; IC50, 3HC formation",3.4 ± 2.3 µM
same,IC50,"CYP2A6 [3]; IC50,u (binding-corrected IC50), 3HC formation, IC50 × fu,inc",0.21 ± 0.14 µM
same,inhibition of 3HC-Gluc formation,[7],< 45%
same,IC50,CYP2B6 [4],4.2 ± 2.7 µM
same,"inhibition at 30 min, 1 µM",CYP2B6 [4]; [10],50%
same,"inhibition at 30 min, 10 µM",CYP2B6 [4]; [10],65%
same,nonspecific binding,[8],70–90%
same,decrease in 3HC-Gluc formation,UGT2B7; 1 μM CBD,35%
same,decrease in 3HC-Gluc formation,UGT2B7; 10 μM CBD,55%
same,inhibition at 100 μM,"UGT2B7; human, microsomes from UGT2B7-overexpressing HEK293 cells, pH 7.4, probe 3HC (30 mM), 3HC-Gluc formation",> 50%
same,IC50,[5],5.1 ± 1.1 µM
same,IC50,"CYP2B6 [6]; IC50, nornicotine formation, nicotine 100 μM, rec CYP2B6 microsomes",0.47 ± 0.077 µM
same,IC50,"CYP2B6 [6]; IC50,u (binding-corrected IC50), nornicotine formation, nicotine 100 μM, rec CYP2B6 microsomes, IC50 × fu,inc",0.029 ± 0.005 µM
same,IC50 at 30 min,"CYP2B6 [6]; human, microsomes from CYP2B6-overexpressing HEK293 cells, pH 7.4, probe nicotine 100 μM (nornicotine formation), IC50,u (binding-corrected IC50), nornicotine formation, nicotine 100 μM, rec CYP2B6 microsomes, IC50 × fu,inc",0.03 ± 0.005 µM
same,"inhibition at 30 min, 1 µM",CYP2B6 [6]; [11],75%
same,"inhibition at 30 min, 10 µM",CYP2B6 [6]; [11],85%
same,inhibition of nicotine-Gluc formation by UGT2B10,UGT2B10,does not inhibit
